Experimental findings from publication PMC8102410, “Coordinate regulation of systemic and kidney tryptophan metabolism by the drug transporters OAT1 and OAT3” (The Journal of Biological Chemistry, 2021) are described below.

Common to all, as to format: cell-based
One experiment deals with T1, OAT1 (Homo sapiens, UniProt Q4U2R8).
T1 construct: gene SLC22A6
T1 sequence (Q4U2R8 1-563): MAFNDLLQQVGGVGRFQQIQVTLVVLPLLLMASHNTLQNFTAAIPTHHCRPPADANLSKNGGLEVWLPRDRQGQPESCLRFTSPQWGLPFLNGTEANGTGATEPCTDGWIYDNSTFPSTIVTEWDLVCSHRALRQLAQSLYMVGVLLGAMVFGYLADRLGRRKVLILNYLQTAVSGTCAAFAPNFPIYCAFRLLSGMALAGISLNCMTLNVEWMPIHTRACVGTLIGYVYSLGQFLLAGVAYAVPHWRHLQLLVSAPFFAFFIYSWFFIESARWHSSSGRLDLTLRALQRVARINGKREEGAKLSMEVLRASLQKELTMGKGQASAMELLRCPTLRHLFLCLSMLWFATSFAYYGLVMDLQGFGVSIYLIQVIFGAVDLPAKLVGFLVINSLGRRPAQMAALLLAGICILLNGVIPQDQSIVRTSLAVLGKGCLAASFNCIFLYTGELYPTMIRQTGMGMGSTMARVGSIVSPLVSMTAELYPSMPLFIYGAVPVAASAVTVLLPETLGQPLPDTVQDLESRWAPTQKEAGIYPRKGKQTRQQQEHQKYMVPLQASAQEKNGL
Kind of experiment: inhibition of 6-carboxyfluorescein uptake in HEK-293 cells stably overexpressing human OAT1.

Experiment [1] concerns the target T2, OAT3 (Homo sapiens, UniProt Q8TCC7).
T2 construct: gene SLC22A8
T2 sequence (Q8TCC7 1-542): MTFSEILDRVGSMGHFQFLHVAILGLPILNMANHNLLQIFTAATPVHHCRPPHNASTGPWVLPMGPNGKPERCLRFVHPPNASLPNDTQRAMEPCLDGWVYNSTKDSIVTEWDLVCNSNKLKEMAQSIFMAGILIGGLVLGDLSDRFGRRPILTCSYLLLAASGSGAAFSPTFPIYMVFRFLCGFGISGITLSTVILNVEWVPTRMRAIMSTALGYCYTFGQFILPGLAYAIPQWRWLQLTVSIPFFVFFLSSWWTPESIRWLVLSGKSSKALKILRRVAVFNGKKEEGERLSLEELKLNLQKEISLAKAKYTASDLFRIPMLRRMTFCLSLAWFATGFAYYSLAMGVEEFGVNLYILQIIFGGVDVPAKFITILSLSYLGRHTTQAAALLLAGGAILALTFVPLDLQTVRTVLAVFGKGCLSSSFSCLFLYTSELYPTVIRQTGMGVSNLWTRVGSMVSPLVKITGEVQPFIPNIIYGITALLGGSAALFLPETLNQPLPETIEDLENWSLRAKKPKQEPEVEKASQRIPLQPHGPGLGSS
Kind of experiment: inhibition of 6-carboxyfluorescein uptake in HEK-293 cells stably overexpressing human OAT3.

The target of experiment [2] is T2, OAT3. Kind of experiment: inhibition of 6-carboxyfluorescein uptake in HEK-293 cells stably overexpressing human OAT3 (data not shown).

As to `O=C(O)[C@@H](O)Cc1c[nH]c2ccccc12` [ILA, indolelactic acid], the half-maximal inhibitory concentration (IC50) at OAT1 was found to be 229 ± 74.6 µM; against OAT3 [1], 74.5 ± 23.3 µM. `NCCc1c[nH]c2ccc(O)cc12` [serotonin] yielded a concentration for half-maximal inhibition (IC50) against OAT3 [2] of 288 ± 167 µM.

One may read the IC50 as the concentration that gives 50% inhibition. A lower IC50 goes with greater potency.
